# Measurements taken from ChEMBL document CHEMBL4184204, “Fusarithioamide B, a new benzamide derivative from the endophytic fungus Fusarium chlamydosporium with potent cytotoxic and antimicrobial activities” (Bioorg Med Chem, 2018).
# Legend:
# MCF7 = experiment: Cytotoxicity against human MCF7 cells after 48 hrs by neutral red dye based assay; format: functional, cell-based; details: MCF7, 48 h
# Candida albicans [1] = experiment: Antifungal activity against Candida albicans AUMC 418 assessed as diameter of inhibition zone after 48 hrs by agar disc diffusion method; format: functional
# Staphylococcus aureus [2] = experiment: Antibacterial activity against Staphylococcus aureus AUMC B-54 assessed as diameter of inhibition zone after 24 hrs by agar disc diffusion method; format: functional
# Escherichia coli [3] = experiment: Antibacterial activity against Escherichia coli AUMC B-53 by microdilution method; format: functional
# Geotrichum candidum [4] = experiment: Antifungal activity against Geotrichum candidum AUMC 226 assessed as diameter of inhibition zone after 48 hrs by agar disc diffusion method; format: functional
# Serratia marcescens [5] = experiment: Antibacterial activity against Serratia marcescens AUMC B-55 assessed as diameter of inhibition zone after 24 hrs by agar disc diffusion method; format: functional
# KB = experiment: Cytotoxicity against human KB cells after 48 hrs by neutral red dye based assay; format: functional, cell-based
# Bacillus cereus [6] = experiment: Antibacterial activity against Bacillus cereus AUMC B-5 by microdilution method; format: functional
# Pseudomonas aeruginosa [7] = experiment: Antibacterial activity against Pseudomonas aeruginosa AUMC B-73 by microdilution method; format: functional
# Pseudomonas aeruginosa [8] = experiment: Antibacterial activity against Pseudomonas aeruginosa AUMC B-73 assessed as diameter of inhibition zone after 24 hrs by agar disc diffusion method; format: functional
# Serratia marcescens [9] = experiment: Antibacterial activity against Serratia marcescens AUMC B-55 by microdilution method; format: functional
# SK-MEL = experiment: Cytotoxicity against human SK-MEL cells after 48 hrs by neutral red dye based assay; format: functional, cell-based
# Trichophyton rubrum [10] = experiment: Antifungal activity against Trichophyton rubrum AUMC 1804 assessed as diameter of inhibition zone after 48 hrs by agar disc diffusion method; format: functional
# Geotrichum candidum [11] = experiment: Antifungal activity against Geotrichum candidum AUMC 226 by microdilution method; format: functional
# BT-549 = experiment: Cytotoxicity against human BT549 cells after 48 hrs by neutral red dye based assay; format: functional, cell-based; details: BT-549, 48 h
# Trichophyton rubrum [12] = experiment: Antifungal activity against Trichophyton rubrum AUMC 1804 by microdilution method; format: functional
# Candida albicans [13] = experiment: Antifungal activity against Candida albicans AUMC 418 by microdilution method; format: functional
# Escherichia coli [14] = experiment: Antibacterial activity against Escherichia coli AUMC B-53 assessed as diameter of inhibition zone after 24 hrs by agar disc diffusion method; format: functional
# HCT-116 = experiment: Cytotoxicity against human HCT116 cells after 48 hrs by neutral red dye based assay; format: functional, cell-based; details: HCT-116, 48 h
# SK-OV-3 = experiment: Cytotoxicity against human SKOV3 cells after 48 hrs by neutral red dye based assay; format: functional, cell-based; details: SK-OV-3, 48 h
# Bacillus cereus [15] = experiment: Antibacterial activity against Bacillus cereus AUMC B-5 assessed as diameter of inhibition zone after 24 hrs by agar disc diffusion method; format: functional
# Staphylococcus aureus [16] = experiment: Antibacterial activity against Staphylococcus aureus AUMC B-54 by microdilution method; format: functional
# Serratia marcescens [17] = experiment: Antibacterial activity against Serratia marcescens AUMC B-55 assessed as diameter of inhibition zone at 10 ug/disc after 24 hrs by agar disc diffusion method; format: functional; details: AUMC B-55, 24 h, read-out: DIZ
# Staphylococcus aureus [18] = experiment: Antibacterial activity against Staphylococcus aureus AUMC B-54 assessed as diameter of inhibition zone at 10 ug/disc after 24 hrs by agar disc diffusion method; details: AUMC B-54, 24 h, read-out: DIZ
# Bacillus cereus [19] = experiment: Antibacterial activity against Bacillus cereus AUMC B-5 assessed as diameter of inhibition zone at 10 ug/disc after 24 hrs by agar disc diffusion method; format: functional; details: AUMC B-5, 24 h, read-out: DIZ
# Pseudomonas aeruginosa [20] = experiment: Antibacterial activity against Pseudomonas aeruginosa AUMC B-73 assessed as diameter of inhibition zone at 10 ug/disc after 24 hrs by agar disc diffusion method; details: AUMC B-73, 24 h, read-out: DIZ
# Escherichia coli [21] = experiment: Antibacterial activity against Escherichia coli AUMC B-53 assessed as diameter of inhibition zone at 10 ug/disc after 24 hrs by agar disc diffusion method; details: AUMC B-53, 24 h, read-out: DIZ
# Candida albicans [22] = experiment: Antifungal activity against Candida albicans AUMC 418 assessed as diameter of inhibition zone at 5 ug/disc after 48 hrs by agar disc diffusion method; format: functional; details: AUMC 418, 48 h, read-out: DIZ
# Geotrichum candidum [23] = experiment: Antifungal activity against Geotrichum candidum AUMC 226 assessed as diameter of inhibition zone at 5 ug/disc after 48 hrs by agar disc diffusion method; format: functional; details: AUMC 226, 48 h, read-out: DIZ
# Trichophyton rubrum [24] = experiment: Antifungal activity against Trichophyton rubrum AUMC 1804 assessed as diameter of inhibition zone at 5 ug/disc after 48 hrs by agar disc diffusion method; format: functional; details: AUMC 1804, 48 h, read-out: DIZ
SMILES,IC50 (KB) [nM],MIC (Bacillus cereus [6]) [µg/mL],MIC (Serratia marcescens [9]) [µg/mL],IC50 (SK-MEL) [nM],MIC (Geotrichum candidum [11]) [µg/mL],IC50 (BT-549) [nM],MIC (Trichophyton rubrum [12]) [µg/mL],MIC (Candida albicans [13]) [µg/mL],IC50 (HCT-116) [nM],IC50 (SK-OV-3) [nM],also measured
CC1NC(=O)C(C)(CC(=O)O)NC(CN)OC(CCS)NC(=O)c2ccccc2NC1=O (stereo not given),6900,2.5,92.1,11200,6.9,90,5.2,1.9,590,1230,IC50 (MCF7): 210 nM; diameter of the inhibition zone (DIZ) (Candida albicans [1]): 14.5 mm; diameter of the inhibition zone (DIZ) (Staphylococcus aureus [2]): 17.4 mm; MIC (Escherichia coli [3]): 3.7 µg/mL; diameter of the inhibition zone (DIZ) (Geotrichum candidum [4]): 28.9 mm; diameter of the inhibition zone (DIZ) (Serratia marcescens [5]): 4.5 mm; MIC (Pseudomonas aeruginosa [7]): 68.4 µg/mL; diameter of the inhibition zone (DIZ) (Pseudomonas aeruginosa [8]): 7.2 mm; diameter of the inhibition zone (DIZ) (Trichophyton rubrum [10]): 40.3 mm; diameter of the inhibition zone (DIZ) (Escherichia coli [14]): 25.1 mm; diameter of the inhibition zone (DIZ) (Bacillus cereus [15]): 23 mm; MIC (Staphylococcus aureus [16]): 3.1 µg/mL
O=C(O)c1cn(C2CC2)c2cc(N3CCNCC3)c(F)cc2c1=O [CIPROFLOXACIN],,2.9,9.1,,,,,,,,zone of inhibition at 10 µg/disc (Serratia marcescens [17]): 30.1 mm; zone of inhibition at 10 µg/disc (Staphylococcus aureus [18]): 15.3 mm; zone of inhibition at 10 µg/disc (Bacillus cereus [19]): 21.2 mm; zone of inhibition at 10 µg/disc (Pseudomonas aeruginosa [20]): 14.8 mm; zone of inhibition at 10 µg/disc (Escherichia coli [21]): 25.6 mm
Clc1ccccc1C(c1ccccc1)(c1ccccc1)n1ccnc1 [CLOTRIMAZOLE],,,,,4.9,,8.1,2.8,,,zone of inhibition at 5 µg/disc (Candida albicans [22]): 17.9 mm; zone of inhibition at 5 µg/disc (Geotrichum candidum [23]): 20.1 mm; zone of inhibition at 5 µg/disc (Trichophyton rubrum [24]): 15.5 mm
COc1cccc2c1C(=O)c1c(O)c3c(c(O)c1C2=O)C[C@@](O)(C(=O)CO)C[C@@H]3O[C@H]1C[C@H](N)[C@H](O)[C@H](C)O1 [DOXORUBICIN],24,,,159,,45,,,240,321,
